Earlier results, collected in patent publication US20100120907A1, “DERIVATIVES OF AMYRIS ALCOHOLS AND EUDESMOL FOR TREATING COLD SORES AND HERPES” (priority 2007, published 2010).

What was measured:
cold sores = details: topical cream
[1] = test system: porcine brain microvascular endothelial cells; details: 50-100 microM
[2] = test system: human umbilical vein endothelial cells (HUVEC)
[3] = test system: extracellular signal-regulated kinase (ERK) ½; details: 100 microM
angiogenesis = details: mice
[4] = molecular target: nicotinic ACh receptor channel (Homo sapiens, UniProt P02708+P11230+Q04844+Q07001)
nicotinic ACh receptor channel, sequence (P02708 21-457): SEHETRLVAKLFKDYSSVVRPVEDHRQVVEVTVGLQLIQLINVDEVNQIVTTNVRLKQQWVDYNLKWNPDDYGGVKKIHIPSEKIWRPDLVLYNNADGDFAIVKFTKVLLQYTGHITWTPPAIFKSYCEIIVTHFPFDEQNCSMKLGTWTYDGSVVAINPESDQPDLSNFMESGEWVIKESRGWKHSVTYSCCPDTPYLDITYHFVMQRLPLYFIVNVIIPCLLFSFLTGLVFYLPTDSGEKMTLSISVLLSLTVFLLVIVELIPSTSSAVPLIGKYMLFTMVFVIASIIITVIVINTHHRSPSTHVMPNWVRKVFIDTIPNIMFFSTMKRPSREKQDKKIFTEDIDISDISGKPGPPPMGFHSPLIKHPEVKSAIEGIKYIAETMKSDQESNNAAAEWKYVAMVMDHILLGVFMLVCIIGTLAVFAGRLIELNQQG
nicotinic ACh receptor channel, sequence (P11230 24-501): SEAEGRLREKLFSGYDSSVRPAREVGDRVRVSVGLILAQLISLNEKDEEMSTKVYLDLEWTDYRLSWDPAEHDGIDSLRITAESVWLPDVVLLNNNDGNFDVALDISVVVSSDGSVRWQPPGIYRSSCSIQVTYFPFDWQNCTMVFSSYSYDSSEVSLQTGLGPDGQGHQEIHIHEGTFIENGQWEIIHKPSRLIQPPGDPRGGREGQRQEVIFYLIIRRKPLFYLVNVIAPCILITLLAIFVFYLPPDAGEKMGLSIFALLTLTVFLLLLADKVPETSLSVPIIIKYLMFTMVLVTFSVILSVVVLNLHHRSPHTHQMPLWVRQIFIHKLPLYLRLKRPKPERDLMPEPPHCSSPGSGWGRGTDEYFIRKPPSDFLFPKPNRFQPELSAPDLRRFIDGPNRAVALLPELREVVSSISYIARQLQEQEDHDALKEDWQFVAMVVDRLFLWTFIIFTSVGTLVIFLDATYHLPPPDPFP
nicotinic ACh receptor channel, sequence (Q07001 22-517): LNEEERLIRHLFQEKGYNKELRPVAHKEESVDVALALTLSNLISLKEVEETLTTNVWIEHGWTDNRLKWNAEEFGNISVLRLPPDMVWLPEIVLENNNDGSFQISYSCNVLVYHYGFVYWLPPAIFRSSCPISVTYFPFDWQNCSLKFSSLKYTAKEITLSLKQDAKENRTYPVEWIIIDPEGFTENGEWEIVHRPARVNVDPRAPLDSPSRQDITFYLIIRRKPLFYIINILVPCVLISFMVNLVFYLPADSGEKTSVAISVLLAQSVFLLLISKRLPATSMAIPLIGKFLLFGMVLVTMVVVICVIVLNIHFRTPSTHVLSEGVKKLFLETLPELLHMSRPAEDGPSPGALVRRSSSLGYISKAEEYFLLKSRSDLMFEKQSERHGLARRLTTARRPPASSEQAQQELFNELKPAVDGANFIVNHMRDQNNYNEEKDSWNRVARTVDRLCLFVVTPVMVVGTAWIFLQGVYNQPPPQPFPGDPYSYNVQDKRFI
nicotinic ACh receptor channel, sequence (Q04844 21-493): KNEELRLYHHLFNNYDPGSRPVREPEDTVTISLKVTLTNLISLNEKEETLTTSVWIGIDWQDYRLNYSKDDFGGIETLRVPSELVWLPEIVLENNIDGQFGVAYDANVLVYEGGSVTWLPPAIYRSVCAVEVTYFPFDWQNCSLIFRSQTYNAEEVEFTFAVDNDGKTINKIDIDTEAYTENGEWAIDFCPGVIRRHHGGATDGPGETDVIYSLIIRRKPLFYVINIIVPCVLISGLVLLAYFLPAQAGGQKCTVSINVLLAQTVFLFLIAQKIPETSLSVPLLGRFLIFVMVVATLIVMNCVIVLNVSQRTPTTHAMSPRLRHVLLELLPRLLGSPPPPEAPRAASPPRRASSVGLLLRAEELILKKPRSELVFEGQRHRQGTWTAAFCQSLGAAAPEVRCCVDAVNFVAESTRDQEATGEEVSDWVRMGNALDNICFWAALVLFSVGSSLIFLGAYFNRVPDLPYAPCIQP

Na^+, K(+)-ATPase = details: among the various kinds of phosphatases examined
skin papillomas = details: DMBA-initiated, TPA-promoted, mice
[5] = test system: ornithine decarboxylase (ODC); details: mice
[6] = molecular target: omega-agatoxin IVA-sensitive (P/Q-type) Ca^2+ channel (Rattus norvegicus, UniProt P54282)
omega-agatoxin IVA-sensitive (P/Q-type) Ca^2+ channel, sequence (P54282 whole entry): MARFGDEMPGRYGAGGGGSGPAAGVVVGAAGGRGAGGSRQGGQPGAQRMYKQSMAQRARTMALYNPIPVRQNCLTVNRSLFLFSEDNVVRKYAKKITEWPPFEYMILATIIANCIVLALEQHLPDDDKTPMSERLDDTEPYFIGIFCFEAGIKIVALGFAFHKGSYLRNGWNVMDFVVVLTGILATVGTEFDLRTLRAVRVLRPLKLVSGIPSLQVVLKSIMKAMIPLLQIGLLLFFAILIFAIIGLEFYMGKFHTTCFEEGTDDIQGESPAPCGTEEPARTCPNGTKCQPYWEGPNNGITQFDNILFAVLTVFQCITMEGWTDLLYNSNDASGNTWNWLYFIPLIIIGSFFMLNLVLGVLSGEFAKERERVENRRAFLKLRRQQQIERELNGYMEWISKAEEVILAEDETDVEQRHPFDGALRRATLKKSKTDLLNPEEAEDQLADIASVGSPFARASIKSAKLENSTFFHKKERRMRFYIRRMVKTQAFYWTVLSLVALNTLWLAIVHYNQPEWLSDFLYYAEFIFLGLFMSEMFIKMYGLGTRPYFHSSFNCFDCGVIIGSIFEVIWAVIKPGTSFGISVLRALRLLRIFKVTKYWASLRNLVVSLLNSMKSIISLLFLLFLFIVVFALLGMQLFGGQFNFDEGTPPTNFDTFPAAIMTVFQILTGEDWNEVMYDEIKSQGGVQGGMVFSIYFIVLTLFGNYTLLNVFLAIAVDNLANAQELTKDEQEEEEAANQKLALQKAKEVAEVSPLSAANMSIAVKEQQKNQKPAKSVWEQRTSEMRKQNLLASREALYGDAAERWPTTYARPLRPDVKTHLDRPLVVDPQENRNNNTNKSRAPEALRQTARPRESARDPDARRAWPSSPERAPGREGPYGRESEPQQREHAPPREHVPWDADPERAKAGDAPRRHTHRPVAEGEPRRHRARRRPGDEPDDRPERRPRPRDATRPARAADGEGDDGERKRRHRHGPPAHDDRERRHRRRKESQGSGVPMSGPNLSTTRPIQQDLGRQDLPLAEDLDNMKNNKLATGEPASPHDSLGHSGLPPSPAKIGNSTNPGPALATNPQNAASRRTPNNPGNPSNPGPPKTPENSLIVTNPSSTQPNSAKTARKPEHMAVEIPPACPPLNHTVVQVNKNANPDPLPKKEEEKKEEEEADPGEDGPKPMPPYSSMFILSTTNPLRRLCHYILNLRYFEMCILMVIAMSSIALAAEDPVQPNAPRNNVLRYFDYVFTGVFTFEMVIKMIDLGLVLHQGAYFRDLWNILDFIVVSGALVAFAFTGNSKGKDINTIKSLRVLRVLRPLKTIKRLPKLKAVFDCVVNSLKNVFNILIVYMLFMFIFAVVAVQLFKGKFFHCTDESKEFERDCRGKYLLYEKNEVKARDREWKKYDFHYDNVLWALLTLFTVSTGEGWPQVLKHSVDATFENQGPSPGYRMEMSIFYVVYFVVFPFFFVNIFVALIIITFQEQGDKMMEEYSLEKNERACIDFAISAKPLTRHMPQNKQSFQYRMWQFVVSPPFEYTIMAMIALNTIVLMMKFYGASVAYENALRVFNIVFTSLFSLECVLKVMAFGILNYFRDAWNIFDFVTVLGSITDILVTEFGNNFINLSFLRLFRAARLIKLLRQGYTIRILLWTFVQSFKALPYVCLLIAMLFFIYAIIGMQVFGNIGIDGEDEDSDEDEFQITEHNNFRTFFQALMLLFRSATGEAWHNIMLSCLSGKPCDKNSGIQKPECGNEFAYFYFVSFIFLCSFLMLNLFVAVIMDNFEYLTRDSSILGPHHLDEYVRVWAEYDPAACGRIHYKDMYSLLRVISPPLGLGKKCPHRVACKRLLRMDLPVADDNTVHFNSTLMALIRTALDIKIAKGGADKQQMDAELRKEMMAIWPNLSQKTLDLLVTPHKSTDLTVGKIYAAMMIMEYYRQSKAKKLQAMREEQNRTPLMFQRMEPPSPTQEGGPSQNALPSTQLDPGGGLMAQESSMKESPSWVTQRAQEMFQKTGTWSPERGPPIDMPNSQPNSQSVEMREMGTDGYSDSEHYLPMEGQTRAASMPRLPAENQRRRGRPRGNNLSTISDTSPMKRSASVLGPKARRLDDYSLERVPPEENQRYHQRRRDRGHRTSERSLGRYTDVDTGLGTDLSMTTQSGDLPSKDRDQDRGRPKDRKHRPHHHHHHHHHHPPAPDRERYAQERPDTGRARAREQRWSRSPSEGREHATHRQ

neurogenic inflammation = details: following electrical stimulation of rat trigeminal ganglion

## Nc1nc2c(ncn2COCCO)c(=O)[nH]1 [Acyclovir]
Cold sores
  reduction of healing time / duration of cold sores: up to ½

## C=C1CCC[C@]2(C)CC[C@@H](C(C)(C)O)C[C@@H]12 [β-eudesmol]
PC-12 cells; 100 and 150 μM
  neurite extension: significantly induced neurite extension
PC-12 cells; at the highest concentration (150 μM)
  [3H]thymidine incorporation: suppression
[1]
  proliferation: inhibited
[2]
  HUVEC migration stimulated by bFGF: inhibited
  tube formation by HUVEC in Matrigel: inhibited
[2]; 50-100 microM
  proliferation: inhibited
[3]
  phosphorylation of ERK ½ induced by bFGF or vascular endothelial growth factor: blocked
angiogenesis
  angiogenesis in subcutaneously implanted Matrigel plugs and in adjuvant-induced granuloma: significantly inhibited
[4]
  block of nicotinic ACh receptor channel: blocked the nicotinic ACh receptor channel in both the open and closed conformations
  desensitization of the nicotinic ACh receptor: accelerated the desensitization
Na^+, K(+)-ATPase
  inhibition of Na+,K+-ATPase activity: most strongly

## santalol
Skin papillomas
  decrease of papilloma incidence: 67%
  decrease of papilloma multiplicity: 96%
[5]
  decrease of TPA-induced ODC activity: 70%

## CC1=CCC[C@]2(C)CC[C@@H](C(C)(C)O)C[C@@H]12 [α-eudesmol]
[6]
  inhibition of P/Q-type Ca2+ channel: potently inhibits
Neurogenic inflammation
  inhibition of neurogenic inflammation: potently inhibits
